Test [1] has as its system Escherichia coli (E. coli) BAS849. Put plainly: Antibacterial activity, microbroth dilution MIC (Table 1). It is filed as cell-based. The settings on record: microbroth dilution, super sensitive Gram-negative E. coli BAS849, read-out: MIC, BAS849. In short, it runs like this: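 Using broth microdilution, MIC endpoints (μg/mL) mark where visible growth no longer appears; the panel spans sensitive and control Gram-negative strains plus a Gram-positive strain.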
On the technique in general: In broth dilution the organism is exposed to a series of concentrations in liquid medium.

The subject of test [2] is Staphylococcus aureus (S. aureus) 29213. The test is described as above. It is filed as cell-based. The following applies: microbroth dilution, Gram-positive S. aureus 29213, read-out: MIC, 29213. In short, it runs like this: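 Values are MICs (μg/mL): the smallest drug amount at which macroscopically visible bacterial growth is absent under assay conditions, from a microdilution method in broth.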

Test [3] concerns E. coli 25922. The description is as above. Type of test: cell-based, Escherichia coli. The settings on record: Escherichia coli; microbroth dilution; control Gram-negative E. coli 25922 strain; read-out: MIC, 25922. In short, it runs like this:
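Each strain is exposed to test compound in a microbroth dilution series; visible growth is scored macroscopically, and the lowest growth-free concentration is recorded as MIC in μg/mL.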

The subject of test [4] is E. coli LZ3111. Nature of the test: Antibacterial activity, MIC, quinolone resistant strain (Table 2). The following applies: Escherichia coli, LZ3111, read-out: MIC LZ3111. Type of test: cell-based. In short, it runs like this:
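Growth inhibition assessed by serial drug dilution in broth; endpoint was absence of macroscopically visible growth, reported as MIC, μg/mL.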

Molecules are shown by their SMILES. ≈ marks a conversion by molar mass, not a printed value.

From patent US9409905B2, “Antibacterial compounds and methods for use” (PTC THERAPEUTICS, INC., priority 2011, dated 2016) come the findings set out here.

As for `CCc1c(-c2ccc3c(c2)cc(CN2CC(C(=O)N(C)C)C2)n3C)[nH]c(=O)c(C(=O)O)c1O` [Cpd 270, 6-(2-((3-(dimethylcarbamoyl)azetidin-1-yl)methyl)-1-methyl-1H-indol-5-yl)-5-ethyl-4-hydroxy-2-oxo-1,2-dihydropyridine-3-carboxylic acid], the MIC (in general, the least concentration at which growth counts as inhibited) in test [1] was < 1 µg/mL; in test [2] it was 3.5 to 12.5 µg/mL (≈ 7.73 to 27.6 µM); in test [3], 3.5 to 12.5 µg/mL (≈ 7.73 to 27.6 µM); in test [4], 12.5 to 150 µg/mL (≈ 27.6 to 331 µM).

Regarding `CCc1c(-c2ccc3c(c2)cc(CN[C@H](C)C(F)(F)F)n3C)[nH]c(=O)c(C(=O)O)c1O` [Cpd 272, (R)-5-ethyl-4-hydroxy-6-(1-methyl-2-((1,1,1-trifluoropropan-2-ylamino)methyl)-1H-indol-5-yl)-2-oxo-1,2-dihydropyridine-3-carboxylic acid], the MIC in test [1] is < 1 µg/mL; in test [2] it was 1 to 3.5 µg/mL (≈ 2.29 to 8 µM); in test [3] it was 12.5 to 150 µg/mL (≈ 28.6 to 343 µM); in test [4], 12.5 to 150 µg/mL (≈ 28.6 to 343 µM).

Consider `CCc1c(-c2ccc3c(c2)cc(CN[C@@H](C)C(F)(F)F)n3C)[nH]c(=O)c(C(=O)O)c1O` [Cpd 273, (S)-5-ethyl-4-hydroxy-6-(1-methyl-2-((1,1,1-trifluoropropan-2-ylamino)methyl)-1H-indol-5-yl)-2-oxo-1,2-dihydropyridine-3-carboxylic acid], for which the MIC in test [1] is < 1 µg/mL; in test [2], 3.5 to 12.5 µg/mL (≈ 8 to 28.6 µM); in test [3], 12.5 to 150 µg/mL (≈ 28.6 to 343 µM); in test [4], 12.5 to 150 µg/mL (≈ 28.6 to 343 µM).

As for `CCc1c(-c2ccc3c(c2)cc(CN2C[C@H]4CCC[C@@H](N(C)Cc5ccccc5)[C@H]4C2)n3C)[nH]c(=O)c(C(=O)O)c1O` [Cpd 280, 6-(2-(((3aR,4R,7aS)-4-(benzyl(methyl)amino)-1H-isoindol-2(3H,3aH,4H,5H,6H,7H,7aH)-yl)methyl)-1-methyl-1H-indol-5-yl)-5-ethyl-4-hydroxy-2-oxo-1,2-dihydropyridine-3-carboxylic acid], the MIC in test [1] was < 1 µg/mL; in test [2], 1 to 3.5 µg/mL (≈ 1.76 to 6.15 µM); in test [3] it was 12.5 to 150 µg/mL (≈ 22 to 264 µM); in test [4], 12.5 to 150 µg/mL (≈ 22 to 264 µM).

Turning to `CCc1c(-c2ccc3c(c2)cc(CN2C[C@H]4CC[C@@H](N(Cc5ccccc5)Cc5ccccc5)[C@H]4C2)n3C)[nH]c(=O)c(C(=O)O)c1O` [Cpd 281, 6-(2-(((3aR,4R,6aS)-4-(dibenzylamino)hexahydrocyclopenta[c]pyrrol-2(1H)-yl)methyl)-1-methyl-1H-indol-5-yl)-5-ethyl-4-hydroxy-2-oxo-1,2-dihydropyridine-3-carboxylic acid], the MIC in test [1], in test [2], in test [3] and in test [4] was 12.5 to 150 µg/mL (≈ 19.8 to 238 µM) in each case.

Turning to `CCc1c(-c2ccc3c(c2)cc(CN2C[C@H]4CCC[C@@H](N(Cc5ccccc5)Cc5ccccc5)[C@H]4C2)n3C)[nH]c(=O)c(C(=O)O)c1O` [Cpd 283, 6-(2-(((3aR,4R,7aS)-4-(dibenzylamino)-1H-isoindol-2(3H,3aH,4H,5H,6H,7H,7aH)-yl)methyl)-1-methyl-1H-indol-5-yl)-5-ethyl-4-hydroxy-2-oxo-1,2-dihydropyridine-3-carboxylic acid], the MIC in test [1], in test [2], in test [3] and in test [4] was 12.5 to 150 µg/mL (≈ 19.4 to 233 µM) in each case.

Take `CCc1c(-c2ccc3c(c2)cc(CN2C[C@H]4C[C@@H](N(Cc5ccccc5)Cc5ccccc5)C[C@H]4C2)n3C)[nH]c(=O)c(C(=O)O)c1O` [Cpd 286, 6-(2-(((3aR,5r,6aS)-5-(dibenzylamino)hexahydrocyclopenta[c]pyrrol-2(1H)-yl)methyl)-1-methyl-1H-indol-5-yl)-5-ethyl-4-hydroxy-2-oxo-1,2-dihydropyridine-3-carboxylic acid]: the minimal inhibitory concentration (MIC) in test [1], in test [2], in test [3] and in test [4] was 12.5 to 150 µg/mL (≈ 19.8 to 238 µM) in each case.

As to `CCc1c(-c2ccc3c(c2)cc(CNCc2ccc(F)cc2)n3C)[nH]c(=O)c(C(=O)O)c1O` [Cpd 292, 5-ethyl-6-(2-((4-fluorobenzylamino)methyl)-1-methyl-1H-indol-5-yl)-4-hydroxy-2-oxo-1,2-dihydropyridine-3-carboxylic acid], the MIC in test [1] is < 1 µg/mL; in test [2], 3.5 to 12.5 µg/mL (≈ 7.79 to 27.8 µM); in test [3], 1 to 3.5 µg/mL (≈ 2.22 to 7.79 µM); in test [4], 12.5 to 150 µg/mL (≈ 27.8 to 334 µM).

In the case of `CCc1c(-c2ccc3c(c2)cc(CNCc2ccccc2OC)n3C)[nH]c(=O)c(C(=O)O)c1O` [Cpd 293, 5-ethyl-4-hydroxy-6-(2-((2-methoxybenzylamino)methyl)-1-methyl-1H-indol-5-yl)-2-oxo-1,2-dihydropyridine-3-carboxylic acid], the minimal inhibitory concentration (MIC) in test [1] is < 1 µg/mL; in test [2], 3.5 to 12.5 µg/mL (≈ 7.58 to 27.1 µM); in test [3], < 1 µg/mL; in test [4] it was 12.5 to 150 µg/mL (≈ 27.1 to 325 µM).

Take `CCc1c(-c2ccc3c(c2)cc(CNCc2cccc(C)c2)n3C)[nH]c(=O)c(C(=O)O)c1O` [Cpd 294, 5-ethyl-4-hydroxy-6-(1-methyl-2-((3-methylbenzylamino)methyl)-1H-indol-5-yl)-2-oxo-1,2-dihydropyridine-3-carboxylic acid]: the MIC in test [1] was < 1 µg/mL; in test [2] it was 1 to 3.5 µg/mL (≈ 2.24 to 7.86 µM); in test [3], < 1 µg/mL; in test [4] it was 12.5 to 150 µg/mL (≈ 28.1 to 337 µM).

Take `CCc1c(-c2ccc3c(c2)cc(CNCc2ccccc2C)n3C)[nH]c(=O)c(C(=O)O)c1O` [Cpd 295, 5-ethyl-4-hydroxy-6-(1-methyl-2-((2-methylbenzylamino)methyl)-1H-indol-5-yl)-2-oxo-1,2-dihydropyridine-3-carboxylic acid]: the MIC is < 1 µg/mL in test [1], 1 to 3.5 µg/mL (≈ 2.24 to 7.86 µM) in test [2], 3.5 to 12.5 µg/mL (≈ 7.86 to 28.1 µM) in test [3] and 12.5 to 150 µg/mL (≈ 28.1 to 337 µM) in test [4].

Regarding `CCc1c(-c2ccc3c(c2)cc(CNCc2cccc(OC)c2)n3C)[nH]c(=O)c(C(=O)O)c1O` [Cpd 296, 5-ethyl-4-hydroxy-6-(2-((3-methoxybenzylamino)methyl)-1-methyl-1H-indol-5-yl)-2-oxo-1,2-dihydropyridine-3-carboxylic acid], the MIC in test [1] was < 1 µg/mL; in test [2], 3.5 to 12.5 µg/mL (≈ 7.58 to 27.1 µM); in test [3], < 1 µg/mL; in test [4], 12.5 to 150 µg/mL (≈ 27.1 to 325 µM).

For the compound `CCc1c(-c2ccc3c(c2)cc(CNCc2ccc(C)cc2)n3C)[nH]c(=O)c(C(=O)O)c1O` [Cpd 297, 5-ethyl-4-hydroxy-6-(1-methyl-2-((4-methylbenzylamino)methyl)-1H-indol-5-yl)-2-oxo-1,2-dihydropyridine-3-carboxylic acid], the MIC in test [1] is < 1 µg/mL; in test [2] it was 1 to 3.5 µg/mL (≈ 2.24 to 7.86 µM); in test [3], < 1 µg/mL; in test [4] it was 12.5 to 150 µg/mL (≈ 28.1 to 337 µM).

As to `CCc1c(-c2ccc3c(c2)cc(CNCc2cccc(F)c2)n3C)[nH]c(=O)c(C(=O)O)c1O` [Cpd 298, 5-ethyl-6-(2-((3-fluorobenzylamino)methyl)-1-methyl-1H-indol-5-yl)-4-hydroxy-2-oxo-1,2-dihydropyridine-3-carboxylic acid], the MIC in test [1] is < 1 µg/mL; in test [2], 1 to 3.5 µg/mL (≈ 2.22 to 7.79 µM); in test [3], 1 to 3.5 µg/mL (≈ 2.22 to 7.79 µM); in test [4], 12.5 to 150 µg/mL (≈ 27.8 to 334 µM).

In the case of `CCc1c(-c2ccc3c(c2)cc(CNCc2ccccc2F)n3C)[nH]c(=O)c(C(=O)O)c1O` [Cpd 299, 5-ethyl-6-(2-((2-fluorobenzylamino)methyl)-1-methyl-1H-indol-5-yl)-4-hydroxy-2-oxo-1,2-dihydropyridine-3-carboxylic acid], the MIC was < 1 µg/mL in test [1], 1 to 3.5 µg/mL (≈ 2.22 to 7.79 µM) in test [2], 1 to 3.5 µg/mL (≈ 2.22 to 7.79 µM) in test [3] and 12.5 to 150 µg/mL (≈ 27.8 to 334 µM) in test [4].

Take `CCc1c(-c2ccc3c(c2)cc(CN(C)CCOC)n3C)[nH]c(=O)c(C(=O)O)c1O` [Cpd 300, 5-ethyl-4-hydroxy-6-(2-(((2-methoxyethyl)(methyl)amino)methyl)-1-methyl-1H-indol-5-yl)-2-oxo-1,2-dihydropyridine-3-carboxylic acid]: the MIC in test [1] was < 1 µg/mL; in test [2] it was 12.5 to 150 µg/mL (≈ 30.2 to 363 µM); in test [3] it was 3.5 to 12.5 µg/mL (≈ 8.46 to 30.2 µM); in test [4], 12.5 to 150 µg/mL (≈ 30.2 to 363 µM).

As to `CCc1c(-c2ccc3c(c2)cc(CNCC2CCCCCC2)n3C)[nH]c(=O)c(C(=O)O)c1O` [Cpd 301, 6-(2-((cycloheptylmethylamino)methyl)-1-methyl-1H-indol-5-yl)-5-ethyl-4-hydroxy-2-oxo-1,2-dihydropyridine-3-carboxylic acid], the minimal inhibitory concentration (MIC) is < 1 µg/mL in test [1], 3.5 to 12.5 µg/mL (≈ 7.75 to 27.7 µM) in test [2], 12.5 to 150 µg/mL (≈ 27.7 to 332 µM) in test [3] and 12.5 to 150 µg/mL (≈ 27.7 to 332 µM) in test [4].

For `CCc1c(-c2ccc3c(c2)cc(CN(C)CCN(C)C)n3C)[nH]c(=O)c(C(=O)O)c1O` [Cpd 303, 6-(2-(((2-(dimethylamino)ethyl)(methyl)amino)methyl)-1-methyl-1H-indol-5-yl)-5-ethyl-4-hydroxy-2-oxo-1,2-dihydropyridine-3-carboxylic acid], the MIC in test [1] is < 1 µg/mL; in test [2], 12.5 to 150 µg/mL (≈ 29.3 to 352 µM); in test [3], 3.5 to 12.5 µg/mL (≈ 8.21 to 29.3 µM); in test [4], 12.5 to 150 µg/mL (≈ 29.3 to 352 µM).

On to `CCc1c(-c2ccc3c(c2)cc(C(C)(C)N2CCCC2)n3C)[nH]c(=O)c(C(=O)O)c1O` [Cpd 307, 5-ethyl-4-hydroxy-6-(1-methyl-2-(2-(pyrrolidin-1-yl)propan-2-yl)-1H-indol-5-yl)-2-oxo-1,2-dihydropyridine-3-carboxylic acid], for which the MIC is < 1 µg/mL in test [1], 1 to 3.5 µg/mL (≈ 2.36 to 8.26 µM) in test [2], 12.5 to 150 µg/mL (≈ 29.5 to 354 µM) in test [3] and 12.5 to 150 µg/mL (≈ 29.5 to 354 µM) in test [4].

Turning to `CCc1c(-c2ccc3c(c2)cc(C(C)(C)N(C)C)n3C)[nH]c(=O)c(C(=O)O)c1O` [Cpd 308, 6-(2-(2-(dimethylamino)propan-2-yl)-1-methyl-1H-indol-5-yl)-5-ethyl-4-hydroxy-2-oxo-1,2-dihydropyridine-3-carboxylic acid], the minimal inhibitory concentration (MIC) in test [1] was < 1 µg/mL; in test [2], 1 to 3.5 µg/mL (≈ 2.52 to 8.81 µM); in test [3], 12.5 to 150 µg/mL (≈ 31.4 to 377 µM); in test [4], 12.5 to 150 µg/mL (≈ 31.4 to 377 µM).
